These results are taken from PMC7434893 (British Journal of Cancer, 2020).

One experiment deals with HEC-59. The experiment is described as follows: 8-day growth inhibition. It is filed as cell-based. To be noted: Endometrial, HEC-59, 8-day assay.
A further experiment deals with MDA-MB-436. In words: 8-day growth inhibition. It is filed as cell-based. To be noted: Breast, MDA-MB-436, 8-day assay.
A further experiment relates to Hs578T. In words: 8-day growth inhibition. Type of experiment: cell-based. To be noted: Breast, 8-day assay.
For another experiment, the system named is PARP2. The settings on record: read-out: IC50, enzymatic activity of PARP2; cited from earlier work.
A further experiment relates to MFE-280. In words: 8-day growth inhibition. To be noted: Endometrial, MFE-280, 8-day assay. It is filed as cell-based.
The next experiment has as its system NCI-H82. The experiment is described as follows: 8-day growth inhibition. It is filed as cell-based. To be noted: SCLC, NCI-H82, 8-day assay.
The subject of a further experiment is MCF-7. In words: 8-day growth inhibition. Type of experiment: cell-based. The settings on record: Breast, MCF-7, 8-day assay.
In a further experiment the test system is advanced solid tumours. The experiment is described as follows: Clinical outcome by 2X-121 DRP prediction. Type of experiment: in vivo, human. The source says:
Matching baseline transcriptome and growth inhibition data were available for 61 of the 74 cell lines, and were used to develop a DRP as previously described.[21],[22] Briefly, IC50 values in the 61 cell lines were correlated to gene-expression levels in the same cell lines; 172 genes with a Pearson correlation above 0.25 were retained as potential markers of sensitivity, while 242 genes with a Pearson correlation below −0.25 were retained as potential markers of resistance. The 414 genes were searched in PubMed for known associations to DNA damage response or Wnt/β-catenin pathways. The 111 pathway-associated genes are shown in Supplementary Table 2. Archival biopsies, in the form of formalin-fixed paraffin-embedded blocks and slides, were obtained from patients in the trial. Only those samples that yielded RNA of sufficient quantity and quality were evaluated for gene expression. The expression of the 414 genes in the 2X-121 DRP was analysed via a custom Affymetrix U133_Plus2 microarray according to the manufacturer’s instructions. The 2X-121 DRP was applied in a blinded manner following a prespecified analysis plan. The difference between the means of the genes that were positively correlated and those negatively correlated to response was used as a single prediction score for each patient, after normalisation to a range of 0–100.
As a first-in-human phase 1 clinical trial, no formal sample-size calculation or hypothesis testing was undertaken. Analysis of biomarker predictions was performed using a 1-sided Pearson correlation test and a 1-sided log-rank test for time-to-event data according to a prespecified analysis plan.

Another experiment has as its system MV-4-11. The experiment is described as follows: 8-day growth inhibition. It is filed as cell-based. The settings on record: AML, MV-4-11, 8-day assay.
A further experiment relates to HCC1806. In words: 8-day growth inhibition. Type of experiment: cell-based. To be noted: Breast, HCC1806, 8-day assay.
Another experiment concerns MDA-MB-157. The experiment is described as follows: 8-day growth inhibition. It is filed as cell-based. To be noted: Breast, MDA-MB-157, 8-day assay.
Setting [1] is: 6 patients predicted sensitive by 2X-121 DRP (cut-off 50).
Setting [2] is: 7 patients predicted not sensitive by 2X-121 DRP.

Structures are written as SMILES. pIC50: −log10 of the molar value. Some results are limits rather than exact numbers.

Broadly, the pIC50 is −log10 of the IC50, conventionally taken in molar units.

With `O=c1[nH]nc2c3c(cccc13)N=C(CN1Cc3ccccc3C1)N2` [E7449], the pIC50 with HEC-59 was 5.61; in the experiment on MDA-MB-436, 6.72; with Hs578T, 5.02; with PARP2, […]; in the experiment on MFE-280 it was 6.11; with NCI-H82 it was 6.33. For the same compound, the pIC50 with MCF-7 is 5.72; in the experiment on MV-4-11, 6.02; in the experiment on HCC1806, 5.74; with MDA-MB-157 it was 5.17. In addition, the Median overall survival in the experiment with advanced solid tumours (setting [1]) is on record as greater than 800 days; in the experiment with advanced solid tumours (setting [2]), 208 days. Besides, the figures for the “Median time to progression” value in the experiment with advanced solid tumours (setting [1]) and in the experiment on advanced solid tumours (setting [2]) were 296 days and 155 days, respectively.
